# Where two headings read alike, the source gives them in different places.
# Legend:
# [1] = tested on: IL-2 stimulated pSTAT5 in Tall-1 T cells; experiment: Cellular JAK3 potency assay: inhibition of IL-2 stimulated pSTAT5 in Tall-1 T cells; type: cell-based, human; settings: for IC50: Homo sapiens, read-out: Tall-1 (pIC50) (converted)
# In short: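 Tall-1 human T cells (45,000/well) in phenol red-free DMEM with 10% FBS were preincubated with compound 1 h at 37 °C, then stimulated with IL-2 (final 300 ng/ml) for 30 min. Lysate pSTAT5 read by AlphaLisa; IC50 from inhibition curves, reported as pIC50 (mean±SD).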
# JAK3 = target: T1, JAK3 (Homo sapiens, UniProt P52333); experiment: Biochemical JAK3 kinase assay (LanthaScreen); parameters: GST; purchased Life Technologies; settings: for Ki: read-out: JAK 3 (pKi) (converted)
# T1 sequence (P52333 1-1124): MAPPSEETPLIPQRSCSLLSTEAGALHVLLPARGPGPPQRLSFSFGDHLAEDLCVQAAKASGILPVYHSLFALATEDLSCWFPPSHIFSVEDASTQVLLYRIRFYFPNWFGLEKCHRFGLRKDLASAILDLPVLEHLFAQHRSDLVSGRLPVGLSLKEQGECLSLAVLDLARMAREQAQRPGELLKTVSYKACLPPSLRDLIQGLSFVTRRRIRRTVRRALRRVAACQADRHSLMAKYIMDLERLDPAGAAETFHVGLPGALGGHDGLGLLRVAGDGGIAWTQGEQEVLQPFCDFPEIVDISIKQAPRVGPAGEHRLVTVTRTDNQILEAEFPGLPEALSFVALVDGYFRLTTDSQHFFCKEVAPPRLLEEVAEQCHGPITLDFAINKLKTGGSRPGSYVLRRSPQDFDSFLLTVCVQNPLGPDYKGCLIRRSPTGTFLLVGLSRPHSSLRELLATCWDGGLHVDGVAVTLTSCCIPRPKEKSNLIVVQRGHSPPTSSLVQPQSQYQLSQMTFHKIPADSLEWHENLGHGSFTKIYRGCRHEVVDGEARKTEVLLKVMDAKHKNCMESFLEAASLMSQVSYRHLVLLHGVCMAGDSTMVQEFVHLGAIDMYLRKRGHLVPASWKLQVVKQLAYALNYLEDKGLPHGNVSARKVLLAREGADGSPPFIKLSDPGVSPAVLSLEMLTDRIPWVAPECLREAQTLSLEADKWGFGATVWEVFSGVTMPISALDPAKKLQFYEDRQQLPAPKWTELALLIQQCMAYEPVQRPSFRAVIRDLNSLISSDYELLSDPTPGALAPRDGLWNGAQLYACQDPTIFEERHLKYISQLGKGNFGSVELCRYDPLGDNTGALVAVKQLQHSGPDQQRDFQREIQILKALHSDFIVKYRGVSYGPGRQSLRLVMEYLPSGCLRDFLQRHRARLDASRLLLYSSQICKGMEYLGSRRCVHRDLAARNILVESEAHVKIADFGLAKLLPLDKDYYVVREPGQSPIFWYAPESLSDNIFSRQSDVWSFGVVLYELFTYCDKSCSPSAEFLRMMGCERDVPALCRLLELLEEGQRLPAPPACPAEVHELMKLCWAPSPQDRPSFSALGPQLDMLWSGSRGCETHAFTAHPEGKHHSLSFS
# In short: (§1)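 TR-FRET read-out: terbium anti-pSTAT1 (pTyr701) antibody, 2 nM, with 10 mM EDTA quench, emission ratio 520/495 nm. GST-JAK phosphorylates GFP-STAT1 peptide for 1 h at ambient temperature after 1 h compound pre-incubation. pIC50 from dose-response converted to pKi by Cheng-Prusoff.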
# Tyk2 = target: T2, Tyk2 (Homo sapiens, UniProt P29597); experiment: Biochemical Tyk2 kinase assay (LanthaScreen); settings: for Ki: read-out: Tyk 2 (pKi) (converted)
# T2 construct: GST; purchased Life Technologies
# T2 sequence (P29597 whole entry): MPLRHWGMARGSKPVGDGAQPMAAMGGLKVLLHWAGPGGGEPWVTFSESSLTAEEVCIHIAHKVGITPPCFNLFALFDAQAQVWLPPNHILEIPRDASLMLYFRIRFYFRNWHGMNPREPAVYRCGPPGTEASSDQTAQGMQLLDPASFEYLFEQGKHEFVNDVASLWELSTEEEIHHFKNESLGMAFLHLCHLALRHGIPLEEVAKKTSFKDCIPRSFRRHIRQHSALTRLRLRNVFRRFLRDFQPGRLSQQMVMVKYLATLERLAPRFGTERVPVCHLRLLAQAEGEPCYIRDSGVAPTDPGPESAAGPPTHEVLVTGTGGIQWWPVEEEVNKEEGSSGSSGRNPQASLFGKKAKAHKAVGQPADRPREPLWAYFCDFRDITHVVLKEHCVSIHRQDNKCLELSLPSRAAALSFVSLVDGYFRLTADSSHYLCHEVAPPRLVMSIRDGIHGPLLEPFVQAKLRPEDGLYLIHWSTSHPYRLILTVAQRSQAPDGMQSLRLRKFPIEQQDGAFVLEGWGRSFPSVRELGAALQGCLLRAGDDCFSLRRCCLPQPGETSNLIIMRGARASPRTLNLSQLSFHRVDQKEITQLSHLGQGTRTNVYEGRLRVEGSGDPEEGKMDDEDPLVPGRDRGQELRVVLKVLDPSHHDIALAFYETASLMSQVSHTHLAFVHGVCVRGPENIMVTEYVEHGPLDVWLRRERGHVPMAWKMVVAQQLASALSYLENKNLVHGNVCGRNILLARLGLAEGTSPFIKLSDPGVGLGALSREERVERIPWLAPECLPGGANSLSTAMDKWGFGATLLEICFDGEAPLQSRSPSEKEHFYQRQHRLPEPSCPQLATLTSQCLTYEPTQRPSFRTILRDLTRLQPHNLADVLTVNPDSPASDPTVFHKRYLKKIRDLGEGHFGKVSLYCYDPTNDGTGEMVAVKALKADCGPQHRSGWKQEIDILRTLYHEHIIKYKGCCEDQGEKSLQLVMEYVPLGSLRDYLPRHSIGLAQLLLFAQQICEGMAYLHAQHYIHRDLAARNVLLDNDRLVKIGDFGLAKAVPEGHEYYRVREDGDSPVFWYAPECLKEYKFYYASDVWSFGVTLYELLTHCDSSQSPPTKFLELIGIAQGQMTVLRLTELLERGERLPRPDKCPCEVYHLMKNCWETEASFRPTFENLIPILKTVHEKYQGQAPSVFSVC
# Method: (§2) A panel of four LanthaScreen JAK biochemical assays (JAK1, 2, 3 and Tyk2) were carried in a common kinase reaction buffer (50 mM HEPES, pH 7.5, 0.01% Brij-35, 10 mM MgCl2, and 1 mM EGTA). Recombinant GST-tagged JAK enzymes and a GFP-tagged STAT1 peptide substrate were obtained from Life Technologies.
# (§3) Serially or discretely diluted compounds were pre-incubated with each of the four JAK enzymes and the substrate in white 384-well microplates (Corning) at ambient temperature for 1 h. ATP was subsequently added to initiate the kinase reactions in 10 μL total volume, with 1% DMSO. […] Kinase reactions were allowed to proceed for 1 hour at ambient temperature before a 10 μL preparation of EDTA (10 mM final concentration) and Tb-anti-pSTAT1 (pTyr701) antibody (Life Technologies, 2 nM final concentration) in TR-FRET dilution buffer (Life Technologies) was added. The plates were allowed to incubate at ambient temperature for 1 h before being read on the EnVision reader (Perkin Elmer). Emission ratio signals (520 nm/495 nm) were recorded and utilized to calculate the percent inhibition values based on DMSO and background controls.
# (§4) For dose-response analysis, percent inhibition data were plotted vs. compound concentrations, and IC50 values were determined from a 4-parameter robust fit model with the Prism software (GraphPad Software). Results were expressed as pIC50 (negative logarithm of IC50) and subsequently converted to pKi (negative logarithm of dissociation constant, Ki) using the Cheng-Prusoff equation.
# JAK2 = target: T3, JAK2 (Homo sapiens, UniProt O60674); experiment: Biochemical JAK2 kinase assay (LanthaScreen); settings: for Ki: read-out: JAK 2 (pKi) (converted)
# T3 construct: GST; purchased Life Technologies
# T3 sequence (O60674 whole entry): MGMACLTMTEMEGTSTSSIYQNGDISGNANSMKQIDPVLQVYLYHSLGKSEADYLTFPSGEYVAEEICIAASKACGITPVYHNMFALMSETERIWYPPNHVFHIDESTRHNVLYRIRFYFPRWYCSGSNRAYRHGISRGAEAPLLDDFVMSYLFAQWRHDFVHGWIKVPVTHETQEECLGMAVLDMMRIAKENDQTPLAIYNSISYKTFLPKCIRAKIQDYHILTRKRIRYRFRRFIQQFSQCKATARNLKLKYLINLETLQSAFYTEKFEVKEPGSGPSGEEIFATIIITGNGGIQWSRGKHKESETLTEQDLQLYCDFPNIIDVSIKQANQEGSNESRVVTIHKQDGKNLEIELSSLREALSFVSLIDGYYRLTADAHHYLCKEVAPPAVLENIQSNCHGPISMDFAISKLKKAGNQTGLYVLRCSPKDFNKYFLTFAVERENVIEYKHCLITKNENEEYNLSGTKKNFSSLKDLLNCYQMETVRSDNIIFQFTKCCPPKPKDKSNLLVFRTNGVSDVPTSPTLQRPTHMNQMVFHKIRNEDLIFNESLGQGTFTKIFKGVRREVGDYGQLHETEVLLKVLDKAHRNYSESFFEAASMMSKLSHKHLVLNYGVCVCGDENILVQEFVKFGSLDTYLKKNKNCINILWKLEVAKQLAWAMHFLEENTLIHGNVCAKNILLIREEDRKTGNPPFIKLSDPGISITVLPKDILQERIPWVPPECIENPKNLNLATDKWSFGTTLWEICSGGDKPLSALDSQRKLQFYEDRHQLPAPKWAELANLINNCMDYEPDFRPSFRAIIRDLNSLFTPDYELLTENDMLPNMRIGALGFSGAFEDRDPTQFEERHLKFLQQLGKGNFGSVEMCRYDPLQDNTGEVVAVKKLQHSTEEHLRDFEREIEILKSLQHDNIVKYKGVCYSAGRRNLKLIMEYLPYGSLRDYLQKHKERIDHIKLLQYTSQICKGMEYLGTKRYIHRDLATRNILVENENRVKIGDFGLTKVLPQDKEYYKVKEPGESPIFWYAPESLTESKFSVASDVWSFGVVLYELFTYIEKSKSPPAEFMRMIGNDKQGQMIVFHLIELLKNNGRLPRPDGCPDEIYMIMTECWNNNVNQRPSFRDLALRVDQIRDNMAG
# Method: as §2
# as §3, with “Elmer).” for “Elmer). Emission ratio signals (520 nm/495 nm) were recorded and utilized to calculate the percent inhibition values based on DMSO and background controls.”
# as §4
# JAK1 = target: T4, JAK1 (Homo sapiens, UniProt P23458); experiment: Biochemical JAK1 kinase assay (LanthaScreen); settings: for Ki: read-out: JAK 1 (pKi) (converted)
# T4 construct: GST; purchased Life Technologies
# T4 sequence (P23458 whole entry): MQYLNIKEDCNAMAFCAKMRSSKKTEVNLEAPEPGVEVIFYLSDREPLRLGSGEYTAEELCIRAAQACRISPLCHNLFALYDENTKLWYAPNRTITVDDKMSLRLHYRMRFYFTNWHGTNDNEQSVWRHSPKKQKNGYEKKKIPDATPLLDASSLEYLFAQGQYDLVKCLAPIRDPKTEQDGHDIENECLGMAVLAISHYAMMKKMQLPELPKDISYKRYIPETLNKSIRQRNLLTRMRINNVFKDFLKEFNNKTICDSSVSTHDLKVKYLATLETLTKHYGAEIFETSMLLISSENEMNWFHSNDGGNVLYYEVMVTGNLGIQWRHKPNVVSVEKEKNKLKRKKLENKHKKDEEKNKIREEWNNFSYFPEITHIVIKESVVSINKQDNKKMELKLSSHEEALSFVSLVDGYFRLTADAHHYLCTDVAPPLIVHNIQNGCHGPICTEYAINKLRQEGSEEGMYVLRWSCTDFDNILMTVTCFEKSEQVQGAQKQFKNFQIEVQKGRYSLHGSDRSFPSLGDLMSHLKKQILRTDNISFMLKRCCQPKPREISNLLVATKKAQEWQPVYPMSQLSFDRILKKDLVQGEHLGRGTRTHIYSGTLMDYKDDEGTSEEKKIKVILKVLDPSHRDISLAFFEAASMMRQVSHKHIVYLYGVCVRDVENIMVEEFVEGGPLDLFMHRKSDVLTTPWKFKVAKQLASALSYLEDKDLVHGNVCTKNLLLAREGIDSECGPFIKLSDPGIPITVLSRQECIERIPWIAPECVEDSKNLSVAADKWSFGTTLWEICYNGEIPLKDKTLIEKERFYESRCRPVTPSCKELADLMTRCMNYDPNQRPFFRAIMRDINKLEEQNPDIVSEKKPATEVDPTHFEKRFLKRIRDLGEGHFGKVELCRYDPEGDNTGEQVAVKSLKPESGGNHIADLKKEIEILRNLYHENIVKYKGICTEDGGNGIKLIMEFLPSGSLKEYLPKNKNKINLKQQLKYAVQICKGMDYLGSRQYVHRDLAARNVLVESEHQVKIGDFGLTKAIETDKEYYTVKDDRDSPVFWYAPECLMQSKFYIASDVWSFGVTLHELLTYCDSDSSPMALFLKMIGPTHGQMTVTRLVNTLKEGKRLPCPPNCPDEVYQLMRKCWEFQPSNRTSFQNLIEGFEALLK
# In short: as §1
# [2] = selectivity JAK3 over JAK1, difference of pKi
# [3] = TALL-1, IL-2 stimulated pSTAT5 in Tall-1 T cells
# [4] = selectivity: difference of pKi JAK3 and pKi JAK1
# [5] = TALL-1, IL-2 stimulated pSTAT5, Tall-1 T cells
# [6] = IL-2 stimulated pSTAT5 in Tall-1 T cells
Compound,"Tall-1 (pIC50) ([1]; IL-2 stimulated pSTAT5, Tall-1 T cells)",JAK 3 (pKi) (JAK3),JAK3 (pKi)-JAK1 (pKi) (JAK3; [2]),Tyk 2 (pKi) (Tyk2),JAK 2 (pKi) (JAK2),JAK 1 (pKi) (JAK1),"IC50 [1, 3] [nM]",Ki (JAK3) [nM],JAK3 (pKi)-JAK1 (pKi) (JAK3; [4]),Ki (Tyk2) [nM],Ki (JAK2) [nM],Ki (JAK1) [nM],"IC50 [1, 5] [nM]","Tall-1 (pIC50) [1, 6]"
CN(C)C/C=C/C(=O)N1CC(C)(Oc2cc(-c3ccc(O)c(Cl)c3)cc3[nH]ncc23)C1 [Compound 5-18],A (a pIC50 value≥7.5 (IC50≤32 nM)),A (a pKi value≥10 (Ki≤0.1 nM)),A (a value of 3 or above),E (a pKi value of 7 or below (Ki of 100 nM or above)),E (a pKi value of 7 or below (Ki of 100 nM or above)),E (a pKi value of 7 or below (Ki of 100 nM or above)),,,,,,,,
C=CC(=O)N1CC(COc2cc(-c3ccc(O)c(F)c3)cc3[nH]ncc23)C1 [Compound 3-4],,,,,,,< 31.6,0.1 to 1,A (a value of 3 or above),> 100,10 to 100,> 100,,
C=CC(=O)N1CC[C@H](Nc2cc(-c3ccc(O)cc3)cc3[nH]ncc23)[C@H](C)C1 [Compound 12-16],,,B (a value of 2.3 to 3),,,,,0.1 to 1,,> 100,1 to 10,10 to 100,< 31.6,
C=CC(=O)N1CC(COc2cc(-c3ccc(O)cc3)cc3[nH]nc(C(F)(F)F)c23)C1 [Compound 18-13],,,A (a value of 3 or above),,,,,< 0.1,,> 100,10 to 100,> 100,< 31.6,
"CN(C)C/C=C/C(=O)N1CC(CN(C)c2cc(-c3ccc(O)cc3)cc3[nH]ncc23)C1 [Compound 11, (E)-4-(dimethylamino)-1-(3-(((6-(4-hydroxyphenyl)-1H-indazol-4-yl)(methyl)amino)methyl)azetidin-1-yl)but-2-en-1-one]",,,,,,,31.6 to 200,0.1 to 1,A (a value of 3 or above),> 100,> 100,> 100,,
C=CC(=O)N1CC[C@H](Oc2cc(-c3ccc(O)c(F)c3)cc3[nH]nc(SC)c23)C1 [Compound 1-40],,,,,,,31.6 to 200,0.1 to 1,B (a value of 2.3 to 3),> 100,> 100,> 100,,
C=CC(=O)N1CC(COc2cc(-c3ccc(O)cc3)cc3[nH]ncc23)C1C (stereo not drawn) [Compound 3-114],,B (a pKi value between 9 and 10 (Ki between 1 nM and 0.1 nM)),,E (a pKi value of 7 or below (Ki of 100 nM or above)),E (a pKi value of 7 or below (Ki of 100 nM or above)),E (a pKi value of 7 or below (Ki of 100 nM or above)),,,A (a value of 3 or above),,,,,A (a pIC50 value≥7.5 (IC50≤32 nM))
CN(C)C/C=C/C(=O)N1CC(OCc2cc(-c3ccc(O)cc3)cc3[nH]ncc23)C1 [Compound 12-38],,,A (a value of 3 or above),,,,,< 0.1,,> 100,> 100,> 100,31.6 to 200,
"C=CC(=O)N1CC[C@H](Sc2cc(-c3ccc(O)cc3)cc3[nH]ncc23)C1 [Compound 12, (S)-1-(3-((6-(4-hydroxyphenyl)-1H-indazol-4-yl)thio)pyrrolidin-1-yl)prop-2-en-1-one]",,,,,,,31.6 to 200,0.1 to 1,B (a value of 2.3 to 3),> 100,> 100,> 100,,
C=CC(=O)N1CC(COc2nc(-c3ccc(O)c(F)c3)nc3[nH]ncc23)C1 [Compound 3-39],,,,,,,31.6 to 200,< 0.1,A (a value of 3 or above),> 100,> 100,> 100,,
C=CC(=O)N1CC[C@H](COc2nc(-c3ccc(O)c(F)c3)cc3[nH]ncc23)C1 [Compound 2-10],,B (a pKi value between 9 and 10 (Ki between 1 nM and 0.1 nM)),,E (a pKi value of 7 or below (Ki of 100 nM or above)),D (a pKi value between 7 and 8 (Ki between 100 nM and 10 nM)),E (a pKi value of 7 or below (Ki of 100 nM or above)),,,A (a value of 3 or above),,,,,A (a pIC50 value≥7.5 (IC50≤32 nM))
CN(C)C/C=C/C(=O)N1CC(F)(COc2nc(-c3ccc(O)c(Cl)c3)cc3[nH]ncc23)C1 [Compound 3-91],,,,,,,< 31.6,< 0.1,A (a value of 3 or above),> 100,10 to 100,10 to 100,,
CN(C)C/C=C/C(=O)N1CC(C#N)(COc2cc(-c3ccc(O)c(Cl)c3)cc3[nH]ncc23)C1 [Compound 3-21],,,,,,,< 31.6,0.1 to 1,A (a value of 3 or above),> 100,> 100,> 100,,

# Reference: patent publication US10392368B2, “Pyrazolo and triazolo bicyclic compounds as JAK kinase inhibitors” (THERAVANCE BIOPHARMA R&D IP, LLC, priority 2017, dated 2019)
